Results published in patent US20250282817A1, “COMPOUNDS FOR DELIVERING GLUTATHIONE TO A TARGET AND METHODS OF MAKING AND USING THE SAME” (priority 2016, published 2025).

Key:
[1] = Menadione toxicity to hepatocytes from young and old rats (percent viability, LC50); assay type: cell-based, rat; settings: rat
Text: (§1) Hepatocytes isolated from an old rat have 60% less mitochondrial GSH than that seen in young adult animals. In this example, menadione was used as a redox cycler, to stress mitochondria in hepatocytes, as GSH-dependent mechanisms can be involved its detoxification. […] The increased vulnerability to menadione has been linked to the loss of GSH resulting from the decline in GSH synthesis capacity.
(§2) Menadione treatment alone served as the positive control.

hepatocytes = test: as above; assay type: cell-based, rat
Text: as §1, §2

cells = test: Oxygen consumption rate (OCR) after 3HP-dependent GSH loss (FIG. 6); assay type: cell-based
[2] = tested on: hepatocytes from aged rats; settings: triphenylphosphonium alone
Description: Menadione treatment alone served as the positive control. Viability in untreated hepatocytes also was measured over two hours.

mice = test: Effect of mitoGSH in animals: i.p. injection of TPP-GSSG, 48 hour observation, liver chemistry profile; assay type: in vivo; settings: 3.8 mg/kg i.p.
Description: Three seven-month-old female non-transgenic mice (approximately 30 g each) were injected i.p. with 3.8 mg/kg TPP-GSSG in 100 μL/mouse. TPP-GSSG was initially solubilized in DMF and later diluted in millipure water to 5.3% (v/v) dimethylformamide for injection. […] All mice gained weight (0.1 g-2.3 g) over the 48 hour period. Blood was collected via brachial cut, spun down to collect plasma and then delivered to OSU Veterinary Diagnostic Laboratory for a small animal liver chemistry profile.

## CC1=CC(=O)c2ccccc2C1=O [menadione]
[1]; isolated hepatocytes from old rats, hepatocytes from old rats
  CC50: 300 µM
[1]; isolated hepatocytes from young rats, hepatocytes from young rats
  CC50: ~500 µM
hepatocytes; hepatocytes from old rats
  CC50: 232 µM
hepatocytes; hepatocytes from young rats
  CC50: 401 µM

## C=CC(O)CC(=O)O (stereo not drawn) [3HP, 3-hydroxy-4-pentenoate]
cells; 3HP-dependent GSH loss
  basal respiration, ATP turnover, proton leak, non-mitochondrial respiration (OCR): does not alter
cells; higher levels of 3HP treatment
  respiratory capacity (OCR): increasingly lost

## Triphenylphosphonium
[2]
  effect on hepatocyte viability: did not affect viability

## Triphenylphosphonium glutathione disulfide tetraethyl ester [TPP-GSSG]
mice; 48 hours, female non-transgenic mice
  health and activity of mice: no detrimental effects observed
mice; after 48 hours
  small animal liver chemistry profile (plasma): No liver damage or abnormalities were detected
